Consider 27 compounds from US6506772B1, “Substituted [1,2,4]triazolo[1,5a]pyridine derivatives with activity as adenosine receptor ligands” (Hoffmann-La Roche Inc., priority 2000, dated 2003).

One test deals with T1, HA1 adenosine receptor (Homo sapiens, UniProt P30542).
T1 sequence (P30542 1-326): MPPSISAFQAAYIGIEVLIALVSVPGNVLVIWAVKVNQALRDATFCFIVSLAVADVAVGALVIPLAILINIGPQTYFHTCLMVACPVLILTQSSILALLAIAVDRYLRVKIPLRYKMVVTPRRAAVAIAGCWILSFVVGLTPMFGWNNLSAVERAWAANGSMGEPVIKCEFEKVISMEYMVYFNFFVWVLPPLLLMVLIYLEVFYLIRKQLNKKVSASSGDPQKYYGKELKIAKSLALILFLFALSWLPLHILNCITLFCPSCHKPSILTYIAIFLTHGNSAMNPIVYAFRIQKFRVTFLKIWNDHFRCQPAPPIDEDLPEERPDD
The experiment in a line: Human adenosine A1 receptor affinity (Ki hA1). Format: binding. The settings on record: affinity to human adenosine A1 receptor.

Test [1] addresses T2, human adenosine A2A receptor (Homo sapiens, UniProt P29274).
T2 construct: expressed in transfected cells; host or cells: CHO cells, Semliki Forest virus expression system; membrane preparation
Nature of the test: Human adenosine A2A receptor [3H]-SCH-58261 binding assay. The settings on record: for Ki: affinity to human adenosine A2A receptor, read-out: Ki HA2A; for selectivity (A1/A2a): calculated ratio of the affinity to the HA1 receptor to the HA2a receptor.

Each structure is given as a SMILES string.

T2 sequence (P29274 whole entry): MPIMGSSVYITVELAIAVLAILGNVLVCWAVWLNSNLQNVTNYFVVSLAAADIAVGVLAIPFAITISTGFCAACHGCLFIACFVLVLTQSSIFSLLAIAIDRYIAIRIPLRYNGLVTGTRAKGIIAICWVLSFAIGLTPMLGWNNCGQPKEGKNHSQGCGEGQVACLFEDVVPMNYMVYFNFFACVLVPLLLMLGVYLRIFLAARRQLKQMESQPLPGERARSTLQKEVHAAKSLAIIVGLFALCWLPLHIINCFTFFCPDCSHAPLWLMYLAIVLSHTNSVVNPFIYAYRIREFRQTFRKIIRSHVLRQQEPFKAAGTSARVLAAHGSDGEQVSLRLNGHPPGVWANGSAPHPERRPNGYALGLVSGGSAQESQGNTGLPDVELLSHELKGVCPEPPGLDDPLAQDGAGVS

At HA1 adenosine receptor, `CCN(CC)C(=O)c1cc(N)n2nc(-c3ccco3)nc2c1` [Example 105, 5-Amino-2-furan-2-yl-[1,2,4]triazolo[1,5-a]pyridine-7-carboxylic acid diethylamide] registered a Ki of 2380 nM. In addition, in test [1], the inhibition constant (Ki) stood at 50.9 nM and the “selectivity (A1/A2a)” value is on record as 46.9.
Take `Nc1cc(C(=O)N2CCOCC2)cc2nc(-c3ccco3)nn12` [Example 108, (5-Amino-2-furan-2-yl-[1,2,4]triazolo[1,5-a]pyridin-7-yl)-morpholin-4-yl-methanone]: the Ki at HA1 adenosine receptor came out at 6200 nM; in test [1], 299 nM. Besides, the “selectivity (A1/A2a)” value in test [1] is given as 20.7.
Taken in the same sequence, the figures for `Nc1cc(C(=O)NCc2ccccc2Cl)cc2nc(-c3ccco3)nn12` [Example 109, 5-Amino-2-furan-2-yl-[1,2,4]triazolo[1,5-a]pyridine-7-carboxylic acid 2-chloro-benzylamide] were 58.7 nM, 2.9 nM and 20.2.
Taken in the same sequence, the figures for `Nc1cc(C(=O)NCc2ccccc2Br)cc2nc(-c3ccco3)nn12` [Example 110, 5-Amino-2-furan-2-yl-[1,2,4]triazolo[1,5-a]pyridine-7-carboxylic acid 2-bromo-benzylamide] were 64.2 nM, 2.6 nM and 24.5.
Taken in the same sequence, the figures for `COc1cc(CNC(=O)c2cc(N)n3nc(-c4ccco4)nc3c2)cc(OC)c1OC` [Example 111, 5-Amino-2-furan-2-yl-[1,2,4]triazolo[1,5-a]pyridine-7-carboxylic acid 3,4,5-trimethoxy-benzylamide] were 1220 nM, 45.2 nM and 27.1.
`COc1cc(CNC(=O)c2cc(N)n3nc(-c4ccc(C)o4)nc3c2)cc(OC)c1OC` [Example 112, 5-Amino-2-(5-methyl-furan-2-yl)-[1,2,4]triazolo[1,5-a]pyridine-7-carboxylic acid 3,4,5-trimethoxy-benzylamide]: the Ki is 2440 nM on HA1 adenosine receptor and 147 nM in test [1]. For the same compound, the “selectivity (A1/A2a)” value in test [1] is on record as 16.6.
Taken in the same sequence, the figures for `Cc1ccc(-c2nc3cc(C(=O)N(C)C4CCCCC4)cc(N)n3n2)s1` [Example 113, 5-Amino-2-(5-methyl-thiophen-2-yl)-[1,2,4]triazolo[1,5-a]pyridine-7-carboxylic acid cyclohexyl-methyl-amide] were 307 nM, 17.2 nM and 17.8.
For `Cc1ccc(-c2nc3cc(C(=O)N4CCCCC4)cc(N)n3n2)s1` [Example 114, [5-Amino-2-(5-methyl-thiophen-2-yl)-[1,2,4]triazolo[1,5-a]pyridin-7-yl]-piperidin-1-yl-methanone] the same measures were 772 nM, 28.3 nM and 27.3.
Consider `Cc1ccc(-c2nc3cc(C(=O)N4CCOCC4)cc(N)n3n2)s1` [Example 115, [5-Amino-2-(5-methyl-thiophen-2-yl)-[1,2,4]triazolo[1,5-a]pyridin-7-yl]-morpholin-4-yl-methanone], for which, at HA1 adenosine receptor, affinity was put at a Ki of 2920 nM. In test [1], the Ki is 222 nM and the “selectivity (A1/A2a)” value was 13.2.
Taken in the same sequence, the figures for `Cc1ccc(-c2nc3cc(C(=O)N(C)Cc4ccccc4)cc(N)n3n2)s1` [Example 116, 5-Amino-2-(5-methyl-thiophen-2-yl)-[1,2,4]triazolo[1,5-a]pyridine-7-carboxylic acid benzyl-methyl-amide] were 170 nM, 15.3 nM and 11.1.
`Cc1ccc(-c2nc3cc(C(=O)N(Cc4ccccc4)C(C)C)cc(N)n3n2)s1` [Example 117, 5-Amino-2-(5-methyl-thiophen-2-yl)-[1,2,4]triazolo[1,5-a]pyridine-7-carboxylic acid benzyl-isopropyl-amide] registered a Ki on HA1 adenosine receptor of 178 nM. In test [1], the Ki was 9.2 nM and the “selectivity (A1/A2a)” value is 19.2.
Taken in the same sequence, the figures for `Nc1cc(C(=O)N2CCCC2)cc2nc(-c3ccccc3O)nn12` [Example 118, [5-Amino-2-(2-hydroxy-phenyl)-[1,2,4]triazolo[1,5-a]pyridin-7-yl]-pyrrolidin-1-yl-methanone] were 1960 nM, 126 nM and 15.5.
For `CCCCNC(=O)c1cc(N)n2nc(-c3nccs3)nc2c1` [Example 119, 5-Amino-2-thiazol-2-yl-[1,2,4]triazolo[1,5-a]pyridine-7-carboxylic acid butylamide] the same measures were 429 nM, 17.1 nM and 25.0.
For `CCN(CC)C(=O)c1cc(N)n2nc(-c3nccs3)nc2c1` [Example 120, 5-Amino-2-thiazol-2-yl-[1,2,4]triazolo[1,5-a]pyridine-7-carboxylic acid diethylamide] the same measures were 2740 nM, 77.4 nM and 35.4.
Turning to `CC(C)N(Cc1ccccc1)C(=O)c1cc(N)n2nc(-c3ccccc3O)nc2c1` [Example 121, 5-Amino-2-(2-hydroxy-phenyl)-[1,2,4]triazolo[1,5-a]pyridine-7-carboxylic acid benzyl-isopropyl-amide], the inhibitory constant (Ki) on HA1 adenosine receptor is 204 nM. Also, in test [1], the Ki was determined as 17 nM and the “selectivity (A1/A2a)” value is 12.0.
Taken in the same sequence, the figures for `CC(C)N(C(=O)c1cc(N)n2nc(-c3nccs3)nc2c1)C(C)C` [Example 122, 5-Amino-2-thiazol-2-yl-[1,2,4]triazolo[1,5-a]pyridine-7-carboxylic acid diisopropylamide] were 3320 nM, 317 nM and 10.5.
For `Nc1cc(C(=O)NC2CCCCC2)cc2nc(-c3nccs3)nn12` [Example 123, 5-Amino-2-thiazol-2-yl-[1,2,4]triazolo[1,5-a]pyridine-7-carboxylic acid cyclohexylamide] the same measures were 698 nM, 43.5 nM and 16.0.
Taken in the same sequence, the figures for `CN(C(=O)c1cc(N)n2nc(-c3nccs3)nc2c1)C1CCCCC1` [Example 124, 5-Amino-2-thiazol-2-yl-[1,2,4]triazolo[1,5-a]pyridine-7-carboxylic acid cyclohexyl-methyl-amide] were 1510 nM, 99.2 nM and 15.2.
Take `Nc1cc(C(=O)NC2CCc3ccccc32)cc2nc(-c3nccs3)nn12` (stereo not drawn) [Example 125, 5-Amino-2-thiazol-2-yl-[1,2,4]triazolo[1,5-a]pyridine-7-carboxylic acid indan-1-ylamide]: the Ki on HA1 adenosine receptor stood at 255 nM. Moreover, in test [1], the Ki is 24.4 nM and the “selectivity (A1/A2a)” value is recorded as 10.5.
For the compound `CC(NC(=O)c1cc(N)n2nc(-c3nccs3)nc2c1)c1ccccc1` (stereo not drawn) [Example 126, 5-Amino-2-thiazol-2-yl-[1,2,4]triazolo[1,5-a]pyridine-7-carboxylic acid (1-phenyl-ethyl)-amide], the affinity at HA1 adenosine receptor corresponds to a Ki of 232 nM. Besides, in test [1], the Ki stood at 54.4 nM and the “selectivity (A1/A2a)” value is 4.3.
In turn, `CCN(CC)C(=O)c1cc(N)n2nc(-c3cccs3)nc2c1` [Example 127, 5-Amino-2-thiophen-2-yl-[1,2,4]triazolo[1,5-a]pyridine-7-carboxylic acid diethylamide] yielded a Ki at HA1 adenosine receptor of 1970 nM. Moreover, in test [1], the Ki turned out to be 104 nM and the “selectivity (A1/A2a)” value was 18.9.
For `Nc1cc(C(=O)N2CCCCC2)cc2nc(-c3cccs3)nn12` [Example 129, (5-Amino-2-thiophen-2-yl-[1,2,4]triazolo[1,5-a]pyridin-7-yl)-piperidin-1-yl-methanone] the same measures were 1460 nM, 101 nM and 14.5.
Taken in the same sequence, the figures for `COc1ccccc1CNC(=O)c1cc(N)n2nc(-c3nccs3)nc2c1` [Example 130, 5-Amino-2-thiazol-2-yl-[1,2,4]triazolo[1,5-a]pyridine-7-carboxylic acid 2-methoxy-benzylamide] were 128 nM, 15.2 nM and 8.4.
Take `CCCCNC(=O)c1cc(N)n2nc(-c3ccc(Br)o3)nc2c1` [Example 131, 5-Amino-2-(5-bromo-furan-2-yl)-[1,2,4]triazolo[1,5-a]pyridine-7-carboxylic acid butylamide]: the Ki at HA1 adenosine receptor is 345 nM. For the same compound, in test [1], the Ki turned out to be 19.4 nM and the “selectivity (A1/A2a)” value was 17.8.
As for `Nc1cc(C(=O)N2CCOCC2)cc2nc(-c3ccc(Br)o3)nn12` [Example 132, [5-Amino-2-(5-bromo-furan-2-yl)-[1,2,4]triazolo[1,5-a]pyridin-7-yl]-morpholin-4-yl-methanone], the Ki on HA1 adenosine receptor amounted to 767 nM; in test [1], 33.8 nM. Besides, the “selectivity (A1/A2a)” value in test [1] was 22.7.
The compound `COc1cc(CNC(=O)c2cc(N)n3nc(-c4ccc(Br)o4)nc3c2)cc(OC)c1OC` [Example 133, 5-Amino-2-(5-bromo-furan-2-yl)-[1,2,4]triazolo[1,5-a]pyridine-7-carboxylic acid 3,4,5-trimethoxy-benzylamide] had a Ki on HA1 adenosine receptor of 1940 nM. In addition, in test [1], the inhibition constant (Ki) is 146 nM and the “selectivity (A1/A2a)” value is 13.3.
Taken in the same sequence, the figures for `Cn1cccc1-c1nc2cc(C(=O)N3CCCC3)cc(N)n2n1` [Example 134, [5-Amino-2-(1-methyl-1H-pyrrol-2-yl)-[1,2,4]triazolo[1,5-a]pyridin-7-yl]-pyrrolidin-1-yl-methanone] were 2680 nM, 287 nM and 9.3.

As usually defined, the Ki is the equilibrium dissociation constant of an inhibitor or competing ligand from its target.
